# Values joined by “and” are separate entries in the source; they are usually repeats but may differ in a detail not shown here. Equal entries are not always repeated.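 48-hour exposure; five concentrations; linearly interpolated endpoints. Here, GI50 denotes the concentration required for 50% inhibition of growth. TGI is the concentration that stops growth completely.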
# Assays:
# Experiment in all cases: NCI-60 cell line screen, 48 h
# [1] = system: SR leukemia
# [2] = system: NCI/ADR-RES ovarian
# [3] = system: HCT-15 colon
# [4] = system: HCC-2998 colon
# [5] = system: RPMI-8226 leukemia
# [6] = system: M14 melanoma
# [7] = system: HT29 colon
# [8] = system: OVCAR-8 ovarian
# [9] = system: HL-60(TB) leukemia
# [10] = system: SF-539 CNS
# [11] = system: NCI-H522 lung
# [12] = system: SN12C renal
# [13] = system: MOLT-4 leukemia
# [14] = system: UACC-62 melanoma
# [15] = system: COLO 205 colon
# [16] = system: IGROV1 ovarian
# [17] = system: K-562 leukemia
# [18] = system: TK-10 renal
# [19] = system: SW-620 colon
# [20] = system: SK-MEL-2 melanoma
# [21] = system: MDA-MB-435
# [22] = system: HS 578T breast
# [23] = system: HOP-92 NSCLC
# [24] = system: ACHN renal
# [25] = system: NCI-H460 lung
# [26] = system: PC-3 prostate
# [27] = system: U251 CNS
# [28] = system: UO-31 renal
# [29] = system: NCI-H226 lung
# [30] = system: OVCAR-4 ovarian
# [31] = system: NCI-H23 lung
# [32] = system: CAKI-1 renal
# [33] = system: DU-145 prostate
# [34] = system: MCF7 breast
# [35] = system: OVCAR-5 ovarian
# [36] = system: SF-268 CNS
# [37] = system: SK-MEL-28 melanoma
# [38] = system: SK-MEL-5 melanoma
# [39] = system: KM12 colon
# [40] = system: OVCAR-3 ovarian
# [41] = system: HCT-116 colon
# [42] = system: EKVX NSCLC
# [43] = system: LOX IMVI melanoma
# [44] = system: SNB-19 CNS
# [45] = system: T-47D breast
# [46] = system: MDA-N
# [47] = system: SF-295 CNS
# [48] = system: BT-549 breast
# [49] = system: A498 renal
# [50] = system: RXF 393 renal
# [51] = system: MALME-3M melanoma
# [52] = system: SK-OV-3 ovarian
# [53] = system: 786-0 renal
# [54] = system: CCRF-CEM leukemia
# [55] = system: UACC-257 melanoma
# [56] = system: A549 NSCLC
# [57] = system: HOP-62 NSCLC
# [58] = system: MDA-MB-231 breast
# [59] = system: SNB-75 CNS
compound,measurement,setting,value
C[C@@]12C(=O)OC(=O)[C@]1(C)[C@H]1CC[C@@H]2O1,GI50,[1],6.78 µM
same,TGI,[1],44.9 µM and 15.3 µM
same,GI50,[2],1.87 µM
same,TGI,[2],4.94 µM and 25.5 µM
same,GI50,[3],2.03 µM
same,TGI,[3],4.7 µM and 13.8 µM
same,GI50,[4],1.03 µM
same,TGI,[4],3 µM and 2.69 µM
same,GI50,[5],3.15 µM
same,TGI,[5],18.2 µM and 6.29 µM
same,TGI,[6],2.87 µM and 3.48 µM
same,TGI,[7],3.43 µM and 5.93 µM
same,GI50,[8],2.1 µM
same,TGI,[8],4.93 µM and 18 µM
same,GI50,[9],1.39 µM
same,TGI,[9],3.77 µM and 4.07 µM
same,GI50,[10],1.62 µM
same,TGI,[10],3.09 µM and 4.5 µM
same,GI50,[11],1.11 µM
same,TGI,[11],2.43 µM and 3.21 µM
same,GI50,[12],1.58 µM
same,TGI,[12],3.21 µM and 4.43 µM
same,GI50,[13],3.88 µM
same,TGI,[13],18 µM and 28.8 µM
same,GI50,[14],1.36 µM
same,TGI,[14],2.86 µM and 7.48 µM
same,TGI,[15],1.69 µM and 1.01 µM
same,GI50,[16],1.8 µM
same,TGI,[16],3.82 µM and 7.78 µM
same,GI50,[17],2.78 µM
same,TGI,[17],10.1 µM and 8.85 µM
same,GI50,[18],0.25 µM
same,TGI,[18],0.608 µM and 0.792 µM
same,GI50,[19],3.07 µM
same,TGI,[19],10.9 µM and 16.6 µM
same,GI50,[20],1.26 µM
same,TGI,[20],2.77 µM and 3.38 µM
same,GI50,[21],1.62 µM
same,TGI,[21],3.02 µM and 4.43 µM
same,GI50,[22],1.36 µM and 1.56 µM
same,TGI,[22],3 µM and 3.29 µM
same,GI50,[23],0.846 µM
same,TGI,[23],2.2 µM and 2.96 µM
same,TGI,[24],2.43 µM and 2.83 µM
same,GI50,[25],2.45 µM
same,TGI,[25],10.3 µM and 9.87 µM
same,GI50,[26],0.525 µM
same,TGI,[26],2.02 µM and 1.23 µM
same,TGI,[27],2.64 µM and 2.91 µM
same,GI50,[28],1.51 µM
same,TGI,[28],2.85 µM and 7.06 µM
same,GI50,[29],1.5 µM
same,TGI,[29],2.97 µM
same,GI50,[30],1.79 µM
same,TGI,[30],3.88 µM and 8.61 µM
same,GI50,[31],2.79 µM
same,TGI,[31],11.4 µM and 20.6 µM
same,TGI,[32],2.11 µM and 2.29 µM
same,GI50,[33],1.37 µM
same,TGI,[33],2.82 µM and 2.81 µM
same,TGI,[34],2.29 µM and 21.3 µM
same,GI50,[35],1.3 µM
same,TGI,[35],3.46 µM and 7.72 µM
same,GI50,[36],0.477 µM
same,TGI,[36],1.75 µM and 3.85 µM
same,GI50,[37],1.54 µM
same,TGI,[37],3 µM and 11.1 µM
same,GI50,[38],1.1 µM
same,TGI,[38],2.33 µM and 2.77 µM
same,GI50,[39],1.37 µM
same,TGI,[39],2.76 µM and 17.5 µM
same,GI50,[40],0.871 µM
same,TGI,[40],2.19 µM and 2.23 µM
same,TGI,[41],4.38 µM and 4.91 µM
same,GI50,[42],0.556 µM
same,TGI,[42],1.76 µM and 1.9 µM
same,GI50,[43],1.44 µM
same,TGI,[43],2.89 µM and 6.79 µM
same,GI50,[44],1.23 µM
same,TGI,[44],2.53 µM and 2.83 µM
same,GI50,[45],1.47 µM
same,TGI,[45],3.14 µM and 4.88 µM
same,GI50,[46],1.29 µM
same,TGI,[46],2.67 µM and 9.02 µM
same,TGI,[47],2.85 µM and 3.22 µM
same,TGI,[48],3.06 µM and 3.29 µM
same,GI50,[49],1.47 µM
same,TGI,[49],2.84 µM and 2.69 µM
same,TGI,[50],1.46 µM and 1.7 µM
same,GI50,[51],1.5 µM
same,TGI,[51],2.99 µM and 3.08 µM
same,GI50,[52],1.48 µM
same,TGI,[52],3.36 µM and 5.24 µM
same,GI50,[53],1.47 µM
same,TGI,[53],2.85 µM and 3.56 µM
same,GI50,[54],1.59 µM
same,TGI,[54],10.8 µM and 7.85 µM
same,GI50,[55],1.49 µM
same,TGI,[55],3.11 µM and 9.63 µM
same,GI50,[56],1.09 µM
same,TGI,[56],2.92 µM and 4.9 µM
same,GI50,[57],1.81 µM
same,TGI,[57],3.34 µM and 5.73 µM
same,GI50,[58],1.51 µM
same,TGI,[58],3.04 µM and 3.24 µM
same,GI50,[59],0.698 µM
same,TGI,[59],1.91 µM and 1.56 µM
O=C(c1c2c(cc3c1CC1(Cc4cc5c(cc4C1)CCCC5)C3)CCCC2)C(Br)Br,TGI,[1],8.05 µM
same,TGI,[2],50.7 µM
same,TGI,[3],33 µM
same,TGI,[4],54.3 µM
same,TGI,[5],> 61.9 µM
same,TGI,[6],15.7 µM
same,TGI,[7],44.5 µM
same,TGI,[8],50.4 µM
same,TGI,[9],> 39.1 µM
same,TGI,[10],38.3 µM
same,TGI,[11],3.18 µM
same,TGI,[12],44.9 µM
same,TGI,[13],6.33 µM
same,TGI,[14],34.3 µM
same,TGI,[15],32.7 µM
same,TGI,[16],27.1 µM
same,TGI,[17],18 µM
same,TGI,[18],30.9 µM
same,TGI,[19],20.5 µM
same,TGI,[20],39.6 µM
same,TGI,[21],28.7 µM
same,TGI,[22],> 70.2 µM
same,TGI,[23],31.9 µM
same,TGI,[24],27 µM
same,TGI,[25],> 100 µM
same,TGI,[26],26.9 µM
same,TGI,[27],30.3 µM
same,TGI,[28],26.8 µM
same,TGI,[29],14.3 µM
same,TGI,[30],41.6 µM
same,TGI,[31],36.5 µM
same,TGI,[32],24.2 µM
same,TGI,[33],> 100 µM
same,TGI,[34],20.2 µM
same,TGI,[35],> 66.7 µM
same,TGI,[36],41.7 µM
same,TGI,[37],30.7 µM
same,TGI,[38],14.4 µM
same,TGI,[39],56.3 µM
same,TGI,[40],38.9 µM
same,TGI,[41],29.1 µM
same,TGI,[42],> 59.8 µM
same,TGI,[43],3.42 µM
same,TGI,[44],> 55.1 µM
same,TGI,[45],27.9 µM
same,TGI,[46],29 µM
same,TGI,[47],> 100 µM
same,TGI,[48],21.6 µM
same,TGI,[49],86.6 µM
same,TGI,[50],28.7 µM
same,TGI,[51],10.7 µM
same,TGI,[52],96.9 µM
same,TGI,[53],29.1 µM
same,TGI,[54],5.14 µM
same,TGI,[55],41.9 µM
same,TGI,[56],> 100 µM
same,TGI,[57],> 81.7 µM
same,TGI,[58],38.2 µM
same,TGI,[59],31.7 µM

# Reference: PubChem BioAssay (NCI)
